The results in this text go back to patent US20230312550A1, “N-(2-(4-CYANOTHIAZOLIDIN-3-YL)-2-OXOETHYL)-QUINOLINE-4-CARBOXAMIDES” (AstraZeneca AB, priority 2020, published 2023).

pIC50, pKd: −log10 of the molar value. ≈ marks a conversion by molar mass, not a printed value.

For data set [1], the target named is human dipeptidylpeptidase 7 (hDPP7) (Homo sapiens (Human), UniProt Q9UHL4). The data set can be described thus: hDPP7 inhibition assay. Conditions: hDPP7 15 nM, Ala-Pro-amino-methylcoumarin 5 μM, n = 1. The format is biochemical. The protocol: Compounds were tested in a biochemical inhibition assay using human dipeptidylpeptidase 7 (hDPP7) enzyme at 15 nM FAC (BPS Bioscience, #80070) and the substrate Ala-Pro-amino-methylcoumarin (BPS Bioscience, #80305) at 5 μM FAC. The enzymatic reactions were conducted in duplicate at rt for 30 min in 50 μL DPP assay buffer (BPS Bioscience, #80300). Compound solutions (in DMSO) at 10 CR, 3 fold dilution series were prepared in assay buffer ten-fold higher than the final concentration, and 5 μL of the dilution was added to a 50 μL reaction so that the highest compound concentration was 100 μM FAC and the concentration of DMSO was 1% in all wells. The plates were read on a Tecan Infinite M1000 microplate reader with excitation 340 nm and emission 460 nm. Data were analyzed in Graph Pad Prism. IC50 values were determined by plotting % inhibition versus log compound concentration and using a one site dose response model. Raw data signals were normalized using 1% DMSO as 0% control and no enzyme as 100% inhibitor control.

For data set [2], the target named is FAP (Mus musculus (Mouse), UniProt P97321). The data set can be described thus: FAP plasma inhibition assay, mouse plasma. The format is biochemical. Conditions: mouse plasma diluted 1:67, Ala-Pro-AMC 75 μM. Put shortly:
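K2EDTA plasma served as enzyme source, human diluted 1:40 and mouse 1:67, in PBS with 0.1% BSA. Compounds ran as a 10-point 3-fold series from 500 nM final, in duplicate, 40 min at rt in the dark, with fluorescence read against a pre-substrate blank. IC50 came from % inhibition versus log concentration.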

The target in data set [3] is Fibroblast Activation Protein alpha (FAP) (Mus musculus (Mouse), UniProt P97321). Kind of data set: in vivo.
Description: The effect of test compound on FAP enzyme activity in mouse plasma was evaluated in an enzymatic assay using the Fibroblast Activation Protein alpha (FAP) specific fluorogenic substrate dipeptide-Coumarin, Ala-Pro-AMC, (ARI-3144).
Male C57Bl/6 mice (Charles River, Germany), 8 weeks of age, were single housed in a temperature-controlled room with a 12-hour light/dark cycle (06:00-18:00 light). The mice had ad libitum access to water and rodent chow diet (R70, Lactamin, Kimstad, Sweden), and were acclimated for 5 days upon arrival. After acclimation, all mice received a single oral dose of test compound (3 or 10 mg/kg). Blood samples for whole blood compound exposure measurements were taken at 0.25, 0.5, 1, 2, 4, 8 and 24 h post oral dosing. Samples were collected in EDTA capillary tubes (20 μL, K2E, REF 19.447) and were transferred to a 96-deep well plate (NUNC, Thermo Discher Scientific) and stored at −20° C. until further analyses were performed. Blood samples for plasma FAP enzyme activity measurements were taken at 0, 0.25, 0.5, 1, 2, 8 and 24 h post dosing. 25 μL of whole blood was collected in EDTA Microvette® CB 300 (K2E, REF 16.444.100) tubes, and were centrifuged at 4,000×g for 5 min. 10 μL of plasma was then transferred to PCR tubes and stored at −20° C. until further analysis was performed. All blood samples were taken by vena saphena puncture.
Recombinant human FAP (PB-17-1837, construct PL-17-0278, cd33-FAP (27-757)-6His, Mw85926 Da) was used as a standard for this assay. […] The plates were read on a Beckman Paradigm reader with excitation 360 nm and emission 465 nm. Fluorescence measurements were performed with kinetic read every 5 minutes for 60 min at room temperature. Data were analyzed in Excel (IDBS XLfit Add-In) using a Linear Regression (y=k*x+m) model to prepare a human recombinant FAP standard curve.
On the day of the assay, plasma was diluted (1:2) to 20 μL volume in buffer (PBS, 0.1% BSA) and 7.5 μL was transferred to the assay plate (384-well black, fluotrack PS, Greiner 781076). Ala-Pro-AMC (stock solution in 10 mM DMSO) was diluted in buffer (PBS, 0.1% BSA) to 150 μM concentration (180 μL stock solution to 12 mL buffer) and 7.5 μL added to the assay plate followed by a pipetting mix. The plates were read on a Beckman Paradigm reader with excitation 360 nm and emission 465 nm. Fluorescence measurements were performed with kinetic read every 5 minutes for 60 minutes at room temperature. As noted above, FAP cleaves Ala-Pro-AMC to release free AMC which is measured as a fluorescent signal.
The in vivo potency IC50 of each test compound was then estimated by relating the plasma exposure C of the compound to target engagement E in plasma using the following equation:
where E0 is the FAP baseline in plasma prior to dosing and Imax is the maximum effect of the compound. Data from each target engagement experiment were considered separately and therefore slightly different estimates of FAP baseline for each compound were obtained. […] The parameter estimation was done in Phoenix WinNonlin Certara build 8.1.0.3530 with the algorithm ‘Naïve pooled’ as parameter estimation method.
Data set [4] is described as follows: Metabolic stability in human liver microsomes (HLM). Conditions: human. On the technique in general: Liver microsomes are vesicles of endoplasmic reticulum, rich in cytochrome P450 enzymes.
Description: Metabolic stability in HLM was measured as described in J Comput Aided Mol Des 2015, 29, 795.
The nature of data set [5]: Metabolic stability in rat hepatocytes (rHep). Conditions: n = 1 or geometric mean of n = 2-3.
Data set [6] is described as follows: Kinetic solubility. Conditions: kinetic from dmso stock.
Description: Kinetic solubility was measured as described in Comput Aided Mol Des 2015, 29, 795.
Data set [7] deals with T1, FAP (Homo sapiens (Human), UniProt Q12884). The data set can be described thus: hFAP inhibition assay. The format is biochemical. Conditions: hFAP […], Ala-Pro-AMC 20 μM; n = 1 or geometric mean n = 2-3. Put shortly: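 Human FAP (0.48 nM) in 100 mM Tris HCl, 100 mM NaCl, 0.05% Chaps, pH 7.4 was preincubated 15 min at rt in the dark with compounds (10-point, 3-fold series from 50 μM). Substrate was added from a 40 μM solution, then 30 min at rt. Fluorescence read at ex 340/em 460 nm; IC50 from one-site dose-response fit of % inhibition.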
Target sequence in this assay (Q12884 38-760): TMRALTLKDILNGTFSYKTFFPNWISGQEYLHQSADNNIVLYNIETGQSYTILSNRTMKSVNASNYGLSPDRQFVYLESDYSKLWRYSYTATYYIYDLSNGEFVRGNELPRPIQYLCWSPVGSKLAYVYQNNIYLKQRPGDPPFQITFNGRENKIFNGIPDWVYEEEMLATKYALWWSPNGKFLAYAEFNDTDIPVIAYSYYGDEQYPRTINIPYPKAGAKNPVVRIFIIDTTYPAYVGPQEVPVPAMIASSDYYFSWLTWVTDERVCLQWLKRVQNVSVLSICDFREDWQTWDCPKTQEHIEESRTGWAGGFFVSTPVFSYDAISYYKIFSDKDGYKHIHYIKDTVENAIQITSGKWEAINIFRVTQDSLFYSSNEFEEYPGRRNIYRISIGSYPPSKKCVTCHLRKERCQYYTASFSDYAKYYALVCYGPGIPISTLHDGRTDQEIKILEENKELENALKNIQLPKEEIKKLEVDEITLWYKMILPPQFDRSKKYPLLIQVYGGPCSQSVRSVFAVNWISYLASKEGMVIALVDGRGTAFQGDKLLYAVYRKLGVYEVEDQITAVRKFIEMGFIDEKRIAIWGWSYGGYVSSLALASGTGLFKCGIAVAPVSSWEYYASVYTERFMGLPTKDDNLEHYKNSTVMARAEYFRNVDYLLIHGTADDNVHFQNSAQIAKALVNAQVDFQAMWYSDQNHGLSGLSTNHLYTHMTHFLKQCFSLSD

The target in data set [8] is Prolyl endopeptidase, Prolyl Oligopeptidase (hPREP) (Homo sapiens (Human), UniProt P48147). Kind of data set: hPrep inhibition assay. The format is biochemical. Conditions: hPREP 0.6 nM, Z-Gly-Pro-amino-methylcoumarin 50 μM; read-out: PREP IC50. In a few lines: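 Recombinant human PREP at 0.6 nM final with Z-Gly-Pro-AMC substrate at 50 μM final in Tris-HCl pH 7.5, NaCl, Triton X-100, glutathione; 15 min rt preincubation then 20 min rt reaction in dark. AMC fluorescence (ex 340/em 460 nm); IC50 from one-site dose-response fit of % inhibition.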

The nature of data set [9]: Metabolic stability in human hepatocytes (hHep). It is filed as in vitro ADME. Conditions: n = 1 or geometric mean of n = 2.
Data set [10] concerns the target human Fibroblast activation protein alpha (hFAP) (Homo sapiens (Human), UniProt Q12884). Kind of data set: hFAP inhibition assay (tight binders). Note: hFAP 2.4 pM. The format is biochemical. Conditions: Ala-Pro-AMC 20 μM, n = 1 or geometric mean n = 2-6. The protocol:
The plates were read on a PHERAstar® reader with excitation 340 nm and emission 460 nm. Data were analyzed in Genedata Screener®. IC50 values were determined by plotting % inhibition versus log compound concentration and using a one site dose response model.

The target of data set [11] is T1, FAP. Kind of data set: FAP plasma inhibition assay, human plasma. The format is biochemical. Conditions: human plasma diluted 1:40, Ala-Pro-AMC 75 μM. The protocol: This assay was adapted from the method described in Example 237 for detection of FAP target engagement enzyme activity in plasma. Plasma (anticoagulant K2EDTA) was used as the enzyme source: Human plasma (Pooled from AZ Biobank), Mouse plasma (AZ AST Biobank), and Cynomolgus plasma (BioIVT, #NHP00PLK2FNN, lot CYN222895). 384-Well black fluotrack PS plates (Greiner 781076) were used. 20 μL diluted plasma (Cynomolgus and Human plasma dilution 1:40, Mouse plasma dilution 1:67) in buffer (PBS, 0.1% BSA) was added to 0.6 μL compounds (in DMSO). Compounds were tested using 10 CR, 3 fold dilution series from 500 nM FAC. Two replicates for each assay point were run on the same plate. A fluorescence blank read was taken before substrate addition. […] Plates were incubated for 40 min at rt in the dark. […] IC50 values were determined by plotting % inhibition versus log compound concentration.
Target sequence in this assay (Q12884 24-760): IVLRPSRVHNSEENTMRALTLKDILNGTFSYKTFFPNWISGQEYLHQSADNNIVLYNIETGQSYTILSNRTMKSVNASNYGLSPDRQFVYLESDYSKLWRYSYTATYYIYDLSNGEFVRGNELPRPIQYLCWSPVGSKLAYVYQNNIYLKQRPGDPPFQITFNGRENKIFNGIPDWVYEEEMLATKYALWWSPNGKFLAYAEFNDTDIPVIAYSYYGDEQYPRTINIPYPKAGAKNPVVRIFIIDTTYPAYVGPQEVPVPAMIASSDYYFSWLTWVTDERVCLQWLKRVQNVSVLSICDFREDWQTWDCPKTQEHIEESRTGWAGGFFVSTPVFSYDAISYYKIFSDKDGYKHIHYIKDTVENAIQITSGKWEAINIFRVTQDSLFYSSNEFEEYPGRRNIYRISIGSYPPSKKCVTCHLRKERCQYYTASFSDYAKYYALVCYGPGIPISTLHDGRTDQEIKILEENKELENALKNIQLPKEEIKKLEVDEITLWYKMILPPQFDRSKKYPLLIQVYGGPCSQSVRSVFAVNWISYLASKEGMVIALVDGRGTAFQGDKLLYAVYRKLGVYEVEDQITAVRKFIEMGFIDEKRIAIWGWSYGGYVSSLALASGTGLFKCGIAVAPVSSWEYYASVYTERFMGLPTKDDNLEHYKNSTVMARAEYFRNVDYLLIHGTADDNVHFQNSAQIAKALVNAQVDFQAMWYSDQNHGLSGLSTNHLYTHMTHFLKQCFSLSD

Data set [12] deals with hFAP (M39-A757) (Homo sapiens (Human), UniProt Q12884). The data set can be described thus: hFAP binding assay (surface plasmon resonance). Conditions: SPR, 20° C.; for hFAP Binding assay k(off) / hFAP Binding assay k(on): single cycle kinetics; for pKd: n = 1 or geometric mean n = 2-4. A general note: SPR reads the build-up and loss of mass on a sensor chip optically.
Data set [13] in a line: Caco-2 cell permeability. Conditions: human.
Description: Caco-2 cell permeability was measured as described in Mol Pharm 2017, 14, 1601.
[14] abbreviates: HLM CLint, n = 1 or average of n = 2-3.
[15] abbreviates: Solubility, kinetic solubility, n = 1 or average of n = 2-3.

human Fibroblast activation protein alpha (hFAP), sequence (Q12884 38-760): as the sequence (Q12884 38-760) above
FAP (Mus musculus (Mouse), UniProt P97321), sequence (P97321 24-761): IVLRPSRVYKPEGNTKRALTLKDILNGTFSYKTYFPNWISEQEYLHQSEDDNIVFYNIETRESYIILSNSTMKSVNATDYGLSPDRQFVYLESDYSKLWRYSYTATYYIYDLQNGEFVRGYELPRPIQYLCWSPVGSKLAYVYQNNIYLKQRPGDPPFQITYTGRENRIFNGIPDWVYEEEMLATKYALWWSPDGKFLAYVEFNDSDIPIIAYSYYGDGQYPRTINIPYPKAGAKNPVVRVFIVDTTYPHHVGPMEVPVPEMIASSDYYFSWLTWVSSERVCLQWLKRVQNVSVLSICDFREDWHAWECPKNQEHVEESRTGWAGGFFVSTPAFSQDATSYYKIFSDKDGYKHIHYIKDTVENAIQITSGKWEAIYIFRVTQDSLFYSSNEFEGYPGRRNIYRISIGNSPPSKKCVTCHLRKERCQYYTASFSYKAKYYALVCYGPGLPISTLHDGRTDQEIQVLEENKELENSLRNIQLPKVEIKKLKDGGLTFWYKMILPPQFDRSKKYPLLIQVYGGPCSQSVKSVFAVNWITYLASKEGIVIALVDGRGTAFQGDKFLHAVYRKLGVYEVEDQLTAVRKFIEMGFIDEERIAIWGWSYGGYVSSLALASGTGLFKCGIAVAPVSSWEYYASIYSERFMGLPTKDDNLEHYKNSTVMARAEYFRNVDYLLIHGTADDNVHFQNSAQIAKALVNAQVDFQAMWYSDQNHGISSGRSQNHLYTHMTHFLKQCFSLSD
Fibroblast Activation Protein alpha (FAP), sequence (P97321 24-761): as above
Prolyl endopeptidase, Prolyl Oligopeptidase (hPREP), sequence (P48147 whole entry): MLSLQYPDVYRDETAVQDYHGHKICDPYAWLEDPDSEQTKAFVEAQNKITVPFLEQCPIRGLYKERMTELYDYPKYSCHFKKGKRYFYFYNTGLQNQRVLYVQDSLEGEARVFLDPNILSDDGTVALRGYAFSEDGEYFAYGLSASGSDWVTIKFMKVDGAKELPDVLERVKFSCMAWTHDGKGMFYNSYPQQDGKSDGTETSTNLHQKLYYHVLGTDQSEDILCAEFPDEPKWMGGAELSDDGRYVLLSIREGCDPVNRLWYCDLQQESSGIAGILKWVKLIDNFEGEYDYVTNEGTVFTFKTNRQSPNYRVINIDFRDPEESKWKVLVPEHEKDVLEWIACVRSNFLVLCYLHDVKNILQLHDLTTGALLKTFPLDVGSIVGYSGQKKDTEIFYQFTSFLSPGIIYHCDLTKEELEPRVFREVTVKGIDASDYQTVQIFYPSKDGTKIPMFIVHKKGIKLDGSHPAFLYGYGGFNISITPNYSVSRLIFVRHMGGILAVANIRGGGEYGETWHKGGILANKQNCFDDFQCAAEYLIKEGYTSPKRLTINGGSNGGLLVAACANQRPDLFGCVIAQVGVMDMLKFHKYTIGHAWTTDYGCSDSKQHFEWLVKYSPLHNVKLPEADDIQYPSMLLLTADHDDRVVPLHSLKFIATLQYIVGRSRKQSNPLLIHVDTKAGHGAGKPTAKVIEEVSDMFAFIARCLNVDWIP
hFAP (M39-A757), sequence (Q12884 39-757): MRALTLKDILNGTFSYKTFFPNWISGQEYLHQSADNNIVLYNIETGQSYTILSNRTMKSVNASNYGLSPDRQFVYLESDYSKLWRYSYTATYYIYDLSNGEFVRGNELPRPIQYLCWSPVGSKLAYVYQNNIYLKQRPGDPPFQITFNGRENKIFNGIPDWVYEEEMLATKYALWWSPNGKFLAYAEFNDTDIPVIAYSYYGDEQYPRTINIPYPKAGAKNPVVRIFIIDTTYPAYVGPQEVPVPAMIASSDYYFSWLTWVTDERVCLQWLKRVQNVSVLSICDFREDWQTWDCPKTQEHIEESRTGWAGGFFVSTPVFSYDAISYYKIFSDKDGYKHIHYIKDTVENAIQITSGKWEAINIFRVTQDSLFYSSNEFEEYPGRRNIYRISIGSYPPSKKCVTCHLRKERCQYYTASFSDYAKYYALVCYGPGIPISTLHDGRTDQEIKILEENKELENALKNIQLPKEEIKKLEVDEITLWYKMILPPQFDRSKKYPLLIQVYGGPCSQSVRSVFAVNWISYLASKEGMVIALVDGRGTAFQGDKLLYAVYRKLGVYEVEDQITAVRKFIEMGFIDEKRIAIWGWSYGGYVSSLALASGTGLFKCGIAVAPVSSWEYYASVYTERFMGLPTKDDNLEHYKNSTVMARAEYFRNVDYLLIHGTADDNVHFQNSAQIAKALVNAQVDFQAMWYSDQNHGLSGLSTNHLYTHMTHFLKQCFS

Take `COC1CCN(c2ccc3nccc(C(=O)NCC(=O)N4CSC[C@H]4C#N)c3c2)CC1` [Example 8, (R)—N-(2-(4-Cyanothiazolidin-3-yl)-2-oxoethyl)-6-(4-methoxypiperidin-1-yl)quinoline-4-carboxamide]: the pIC50 (as a rule, the IC50 on a negative log10 scale, so that one unit is a factor of ten) was under 4.00 in [1] and 9.70 in data set [2].

For `CC1(CF)CN(c2ccc3nccc(C(=O)NCC(=O)N4CSC[C@H]4C#N)c3c2)C1` [Example 27, (R)—N-(2-(4-Cyanothiazolidin-3-yl)-2-oxoethyl)-6-(3-(fluoromethyl)-3-methylazetidin-1-yl)quinoline-4-carboxamide], the pIC50 in [1] is under 4.00; in [2] it was 9.30; in data set [3], 8.85.

`N#C[C@@H]1CSCN1C(=O)CNC(=O)c1ccnc2ccc(N3CCC4(CCCCC4)OC3=O)cc12` [Example 110, (R)—N-(2-(4-cyanothiazolidin-3-yl)-2-oxoethyl)-6-(2-oxo-1-oxa-3-azaspiro[5.5]undecan-3-yl)quinoline-4-carboxamide]: the microsomal CLint – broadly, a measure of how fast metabolising enzymes remove a compound, apart from limits set by blood flow – in data set [4] came out at 39 µL/min/mg. The molecule further gave a pIC50 in [1] of under 4.00. For the same molecule, in data set [5], the “rHep CLint” value stood at 3.3 μL/min/1E6. Moreover, in [6], the solubility – broadly, the dissolved amount per volume that the medium holds – came out at 950 µM (≈ 469 µg/mL).

Take `N#C[C@@H]1CSCN1C(=O)CNC(=O)c1ccnc2ccc(N3CCC4(CCCC4)OC3=O)cc12` [Example 111, (R)—N-(2-(4-cyanothiazolidin-3-yl)-2-oxoethyl)-6-(7-oxo-6-oxa-8-azaspiro[4.5]decan-8-yl)quinoline-4-carboxamide]: in data set [1], the pIC50 is under 4.00.

For the molecule `N#C[C@@H]1CSCN1C(=O)CNC(=O)c1ccnc2ccc(N3CC(CF)C3)cc12` [Example 113, (R)—N-(2-(4-Cyanothiazolidin-3-yl)-2-oxoethyl)-6-(3-(fluoromethyl)azetidin-1-yl)quinoline-4-carboxamide], the pIC50 is 9.60 in data set [7]; 6.31 in [8]; 9.92 in data set [10]; 9.70 in data set [11]; 9.30 in data set [2]; 8.70 in [3]. In addition, in data set [9], the “hHep CLint” value was under 1.5 μL/min/1E6. Besides, in data set [4] (setting [14]), the microsomal CLint was under 3 µL/min/mg. In addition, in [5], the “rHep CLint” value came to 11 μL/min/1E6. In data set [12], the “hFAP Binding assay k(off)” value came out at 0.000045 s⁻¹. Further, the “hFAP Binding assay k(on)” value in data set [12] came to 1500000 M⁻¹ s⁻¹. Further, the pKd (usually the Kd on a negative log10 scale, so that one unit is a factor of ten) in data set [12] was 10.51. In data set [13], the Papp (usually a coefficient for how fast a substance crosses the barrier) amounted to 20 ×10⁻⁶ cm/s. The Papp A→B (commonly the apparent permeability from the apical to the basolateral side of a cell layer) in data set [13] is 1.9 ×10⁻⁶ cm/s. Also, in data set [13], the Papp B→A (commonly how fast a substance crosses the layer from the basolateral side) came to 23 ×10⁻⁶ cm/s. Besides, the efflux ratio (as a rule, a quotient of directional permeabilities that is used to spot active efflux) in [13] stood at 12. The same molecule had a solubility in data set [6] (setting [15]) of 71 µM (≈ 29.4 µg/mL).

Regarding `N#C[C@@H]1CSCN1C(=O)CNC(=O)c1ccnc2ccc(N3CC4(COC4)C3)cc12` [Example 166, (R)—N-(2-(4-Cyanothiazolidin-3-yl)-2-oxoethyl)-6-(2-oxa-6-azaspiro[3.3]heptan-6-yl)quinoline-4-carboxamide], the pIC50 in [7] was 9.47. The pIC50 in [8] is 5.77. The “hHep CLint” value in data set [9] was under 1 μL/min/1E6. In data set [4], this molecule came in with a microsomal CLint of under 3 µL/min/mg. Besides, the pIC50 in data set [10] was 9.66. The pIC50 in [11] was 9.52. For the same molecule, in [5], the “rHep CLint” value is recorded as under 1 μL/min/1E6. In data set [2], this molecule had a pIC50 of 9.22. Also, in data set [12], the “hFAP Binding assay k(off)” value was 0.000049 s⁻¹, the “hFAP Binding assay k(on)” value stood at 2200000 M⁻¹ s⁻¹ and the negative logarithm of the Kd (pKd) was 10.52. In data set [13], the Papp was determined as 2 ×10⁻⁶ cm/s, the Papp A→B was 0.56 ×10⁻⁶ cm/s, the Papp B→A was 13 ×10⁻⁶ cm/s and the efflux ratio was found to be 24. The molecule also showed a solubility in data set [6] of over 910 µM.

In the case of `N#C[C@@H]1CSCN1C(=O)CNC(=O)c1ccnc2ccc(-c3ccc(C(F)F)nc3)cc12` [Example 169, (R)—N-(2-(4-cyanothiazolidin-3-yl)-2-oxoethyl)-6-(6-(difluoromethyl)pyridin-3-yl)quinoline-4-carboxamide], the pIC50 was 9.66 in [7], 6.36 in data set [8], 10.24 in data set [10] and 8.85 in [3]. In [4] (setting [14]), this molecule came in with a microsomal CLint of 18 µL/min/mg. Besides, in data set [5], the “rHep CLint” value was 8.8 μL/min/1E6. Further, the “hFAP Binding assay k(off)” value in data set [12] was 0.00096 s⁻¹. In addition, the “hFAP Binding assay k(on)” value in data set [12] worked out at 6200000 M⁻¹ s⁻¹. In data set [12], this molecule had a pKd of 9.80. Further, the solubility in [6] (setting [15]) is 26 µM (≈ 11.8 µg/mL).

With `N#C[C@@H]1CSCN1C(=O)CNC(=O)c1ccnc2ccc(-c3cnn(C4CC4)c3)cc12` [Example 170, (R)—N-(2-(4-Cyanothiazolidin-3-yl)-2-oxoethyl)-6-(1-cyclopropyl-1H-pyrazol-4-yl)quinoline-4-carboxamide], the pIC50 was 6.59 in data set [8], 9.30 in data set [2] and 8.06 in data set [3]. For the same molecule, in [12], the “hFAP Binding assay k(off)” value worked out at 0.00018 s⁻¹. In addition, the “hFAP Binding assay k(on)” value in data set [12] was determined as 10000000 M⁻¹ s⁻¹.

Regarding `CC(=O)N1CC2(C1)CN(c1ccc3nccc(C(=O)NCC(=O)N4CSC[C@H]4C#N)c3c1)C2` [Example 184, (R)-6-(6-Acetyl-2,6-diazaspiro[3.3]heptan-2-yl)-N-(2-(4-cyanothiazolidin-3-yl)-2-oxoethyl)quinoline-4-carboxamide], the pIC50 in data set [7] was 9.40. For the same molecule, in [8], the pIC50 is 5.96. Also, the “hHep CLint” value in data set [9] is recorded as under 1 μL/min/1E6. In data set [4] (setting [14]), this molecule registered a microsomal CLint of under 3 µL/min/mg. This molecule also had a negative logarithm of the IC50 (pIC50) in data set [10] of 9.66. Also, the pIC50 in data set [11] is 9.70. The “rHep CLint” value in [5] is under 1 μL/min/1E6. Moreover, the negative-log IC50 (pIC50) in data set [2] was 9.22. Besides, in data set [12], the “hFAP Binding assay k(off)” value turned out to be 0.000014 s⁻¹, the “hFAP Binding assay k(on)” value was determined as 950000 M⁻¹ s⁻¹ and the pKd is 10.82. In [13], the Papp worked out at 0.1 ×10⁻⁶ cm/s, the Papp A→B came to 0.25 ×10⁻⁶ cm/s, the Papp B→A stood at 0.78 ×10⁻⁶ cm/s and the efflux ratio came out at 3.1. In addition, the solubility in data set [6] (setting [15]) was 930 µM (≈ 432 µg/mL).

In the case of `N#C[C@@H]1CSCN1C(=O)CNC(=O)c1ccnc2ccc(N3CCC(F)CC3)cc12` [Example 205, (R)—N-(2-(4-Cyanothiazolidin-3-yl)-2-oxoethyl)-6-(4-fluoropiperidin-1-yl)quinoline-4-carboxamide], the pIC50 in data set [8] was 6.19; in data set [2], 9.52; in [3], 8.92. In addition, the “hFAP Binding assay k(off)” value in [12] was 0.000046 s⁻¹. Moreover, the “hFAP Binding assay k(on)” value in data set [12] was found to be 2100000 M⁻¹ s⁻¹.
